# Experimental data from PubChem BioAssay AID1963435 (Molecular Pharmacology Branch, DTP, NCI, 2024).
# Values joined by “and” are separate entries in the source; they are usually repeats but may differ in a detail not shown here. Identical values can stand only once.
# Test system: PANC-1 complex spheroid growth, percent test/control
# Experiment: Anticancer human tumor PANC-1 cell line growth inhibition [Asc];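 note: spheroids exposed to agents for 7 days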;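 for viability, T/C: percent viability relative to DMSO vehicle wells taken as 100%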
# Conditions: for viability, T/C: stronger effect = lower value
# In short: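 Stromal components (HUVEC and hMSC) are co-assembled with the cancer cells into multicellular spheroids. Drugs are then added singly or paired, at concentrations falling by half-log increments from a clinically achievable maximum, capped at 10 microM without known Cmax.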
smiles,measurement,setting,value
C=C(F)C(=O)N1CCN(c2nc(OCC3CCCN3C)nc3c2CCN(c2cccc4cccc(Cl)c24)C3)CC1CC#N (stereo unspecified) + CCN1C(C(=O)NC23CCC(C(=O)O)(CC2)CC3)C(c2cccc(Cl)c2F)C2(C(=O)Nc3cc(Cl)ccc32)C12CCCCC2,IC50,"curve of first compound, second compound 0.00949 µM",7.22 µM
same,IC50,"curve of first compound, second compound 0.03 µM",6.88 µM
same,IC50,"curve of first compound, second compound 0.0949 µM",6.94 µM
same,IC50,"curve of first compound, second compound 0.3 µM",7.25 µM
same,IC50,"curve of first compound, second compound 0.949 µM",7.02 µM
same,IC50,"curve of first compound, second compound 3 µM",7.78 µM
same,"viability, T/C","second compound 0.00949 µM, first compound 0.0316 µM",99%
same,"viability, T/C","second compound 0.00949 µM, first compound 0.1 µM",89.5%
same,"viability, T/C","second compound 0.00949 µM, first compound 0.316 µM",88.4%
same,"viability, T/C","second compound 0.00949 µM, first compound 1 µM",98.5%
same,"viability, T/C","second compound 0.00949 µM, first compound 3.16 µM",105%
same,"viability, T/C","second compound 0.00949 µM, first compound 10 µM",31.7%
same,"viability, T/C","second compound 0.03 µM, first compound 0.0316 µM",103%
same,"viability, T/C","second compound 0.03 µM, first compound 0.1 µM",96.7%
same,"viability, T/C","second compound 0.03 µM, first compound 0.316 µM",97%
same,"viability, T/C","second compound 0.03 µM, first compound 1 µM",97.7%
same,"viability, T/C","second compound 0.03 µM, first compound 3.16 µM",88%
same,"viability, T/C","second compound 0.03 µM, first compound 10 µM",31.6%
same,"viability, T/C","second compound 0.0949 µM, first compound 0.0316 µM",105%
same,"viability, T/C","second compound 0.0949 µM, first compound 0.1 µM",102%
same,"viability, T/C","second compound 0.0949 µM, first compound 0.316 µM",108%
same,"viability, T/C","second compound 0.0949 µM, first compound 1 µM",109%
same,"viability, T/C","second compound 0.0949 µM, first compound 3.16 µM",106%
same,"viability, T/C","second compound 0.0949 µM, first compound 10 µM",24.1%
same,"viability, T/C","second compound 0.3 µM, first compound 0.0316 µM",99.5%
same,"viability, T/C","second compound 0.3 µM, first compound 0.1 µM",93.1%
same,"viability, T/C","second compound 0.3 µM, first compound 0.316 µM",103%
same,"viability, T/C","second compound 0.3 µM, first compound 1 µM",108%
same,"viability, T/C","second compound 0.3 µM, first compound 3.16 µM",100%
same,"viability, T/C","second compound 0.3 µM, first compound 10 µM",30.5%
same,"viability, T/C","second compound 0.949 µM, first compound 0.0316 µM",117%
same,"viability, T/C","second compound 0.949 µM, first compound 0.1 µM",104%
same,"viability, T/C","second compound 0.949 µM, first compound 0.316 µM",114%
same,"viability, T/C","second compound 0.949 µM, first compound 1 µM",109%
same,"viability, T/C","second compound 0.949 µM, first compound 3.16 µM",97.1%
same,"viability, T/C","second compound 0.949 µM, first compound 10 µM",28.9%
same,"viability, T/C","second compound 3 µM, first compound 0.0316 µM",112%
same,"viability, T/C","second compound 3 µM, first compound 0.1 µM",108%
same,"viability, T/C","second compound 3 µM, first compound 0.316 µM",115%
same,"viability, T/C","second compound 3 µM, first compound 1 µM",126%
same,"viability, T/C","second compound 3 µM, first compound 3.16 µM",96.7%
same,"viability, T/C","second compound 3 µM, first compound 10 µM",37%
C=CC(=O)N1CCN(c2nc(=O)n(-c3c(C)ccnc3C(C)C)c3nc(-c4c(O)cccc4F)c(F)cc23)C(C)C1 (stereo unspecified),"viability, T/C",compound 0.0316 µM,105% and 97.2% and 101%
same,"viability, T/C",compound 0.1 µM,96% and 89.2% and 90%
same,"viability, T/C",compound 0.316 µM,104% and 106% and 98%
same,"viability, T/C",compound 1 µM,101% and 89.2% and 96.2%
same,"viability, T/C",compound 3.16 µM,85.8% and 99.7% and 91.8%
same,"viability, T/C",compound 10 µM,93.4% and 87.1% and 88%
same,IC50,curve of compound,> 10 µM
NC(=O)C(=Cn1cnc(-c2cc(C(F)(F)F)cc(C(F)(F)F)c2)n1)c1cncnc1 + CNC(C)C(=O)NC1CN(S(=O)(=O)c2cccc(S(=O)(=O)N3CCC4CCC(C(=O)NC(c5ccccc5)c5ccccc5)N4C(=O)C(NC(=O)C(C)NC)C3)c2)CCC2CCC(C(=O)NC(c3ccccc3)c3ccccc3)N2C1=O,IC50,"curve of first compound, second compound 0.00316 µM",> 0.3 µM
same,IC50,"curve of first compound, second compound 0.01 µM",> 0.3 µM
same,IC50,"curve of first compound, second compound 0.0316 µM",> 0.3 µM
same,IC50,"curve of first compound, second compound 0.1 µM",> 0.3 µM
same,IC50,"curve of first compound, second compound 0.316 µM",> 0.3 µM
same,IC50,"curve of first compound, second compound 1 µM",> 0.3 µM
same,"viability, T/C","second compound 0.00316 µM, first compound 0.000949 µM",103%
same,"viability, T/C","second compound 0.00316 µM, first compound 0.003 µM",80.5%
same,"viability, T/C","second compound 0.00316 µM, first compound 0.00949 µM",90.2%
same,"viability, T/C","second compound 0.00316 µM, first compound 0.03 µM",91.6%
same,"viability, T/C","second compound 0.00316 µM, first compound 0.0949 µM",102%
same,"viability, T/C","second compound 0.00316 µM, first compound 0.3 µM",95.3%
same,"viability, T/C","second compound 0.01 µM, first compound 0.000949 µM",87%
same,"viability, T/C","second compound 0.01 µM, first compound 0.003 µM",89.9%
same,"viability, T/C","second compound 0.01 µM, first compound 0.00949 µM",89.3%
same,"viability, T/C","second compound 0.01 µM, first compound 0.03 µM",87.6%
same,"viability, T/C","second compound 0.01 µM, first compound 0.0949 µM",95.3%
same,"viability, T/C","second compound 0.01 µM, first compound 0.3 µM",85.2%
same,"viability, T/C","second compound 0.0316 µM, first compound 0.000949 µM",82%
same,"viability, T/C","second compound 0.0316 µM, first compound 0.003 µM",91.4%
same,"viability, T/C","second compound 0.0316 µM, first compound 0.00949 µM",83.3%
same,"viability, T/C","second compound 0.0316 µM, first compound 0.03 µM",81%
same,"viability, T/C","second compound 0.0316 µM, first compound 0.0949 µM",90.5%
same,"viability, T/C","second compound 0.0316 µM, first compound 0.3 µM",78.3%
same,"viability, T/C","second compound 0.1 µM, first compound 0.000949 µM",84%
same,"viability, T/C","second compound 0.1 µM, first compound 0.003 µM",83.1%
same,"viability, T/C","second compound 0.1 µM, first compound 0.00949 µM",79.9%
same,"viability, T/C","second compound 0.1 µM, first compound 0.03 µM",91.3%
same,"viability, T/C","second compound 0.1 µM, first compound 0.0949 µM",102%
same,"viability, T/C","second compound 0.1 µM, first compound 0.3 µM",80.5%
same,"viability, T/C","second compound 0.316 µM, first compound 0.000949 µM",89.2%
same,"viability, T/C","second compound 0.316 µM, first compound 0.003 µM",78%
same,"viability, T/C","second compound 0.316 µM, first compound 0.00949 µM",79.2%
same,"viability, T/C","second compound 0.316 µM, first compound 0.03 µM",81.5%
same,"viability, T/C","second compound 0.316 µM, first compound 0.0949 µM",103%
same,"viability, T/C","second compound 0.316 µM, first compound 0.3 µM",71.9%
same,"viability, T/C","second compound 1 µM, first compound 0.000949 µM",78.3%
same,"viability, T/C","second compound 1 µM, first compound 0.003 µM",90.7%
same,"viability, T/C","second compound 1 µM, first compound 0.00949 µM",79.7%
same,"viability, T/C","second compound 1 µM, first compound 0.03 µM",85.3%
same,"viability, T/C","second compound 1 µM, first compound 0.0949 µM",88.8%
same,"viability, T/C","second compound 1 µM, first compound 0.3 µM",66.7%
